Values quoted from earlier work as cited in patent US20100056488A1, “CORTICOSTEROID CONJUGATES AND USES THEREOF” (The McLean Hospital Corporation, priority 2002, published 2010).

Columns and labels:
[1] = system: cortisol production or ACTH; conditions: suppression of cortisol production or ACTH
[2] = system: ether-stress induced increase in corticosterone; conditions: dose 0.025 mg/kg; higher dose necessary to fully eliminate response
[3] = system: corticosterone production; conditions: suppression for 24 hours

SMILES	CNS activity [1]	suppression of ether-stress induced increase in corticosterone [2]	lowest dose fully effective in suppressing basal corticosterone production [3] [mg/kg]
C[C@]12CCC(=O)C=C1CC[C@@H]1[C@@H]2[C@@H](O)C[C@@]2(C)[C@H]1CC[C@]2(O)C(=O)COC(=O)CCC(=O)O [Hydrocortisone sodium succinate]	CNS active		
C[C@@H]1C[C@H]2[C@@H]3CCC4=CC(=O)C=C[C@]4(C)[C@@]3(F)[C@@H](O)C[C@]2(C)[C@@]1(O)C(=O)CO [dexamethasone]		significantly suppressed	0.025
